Values of other authors in PMC9899610 (Cancer Science, 2022).
Where two headings read alike, the source gives them in different places.

Tested on: patients with advanced or metastatic cholangiocarcinoma; urothelial carcinoma
Settings: cited from earlier work
[1] = patients with advanced or metastatic cholangiocarcinoma

SMILES	Hyperphosphatemia, patients (patients with urothelial carcinoma) [%]	Patients who discontinued treatment because of retinal detachment (phase II study) [%]	Retinal AEs requiring dose interruption or treatment discontinuation	Hyperphosphatemia, patients [1] [%]
COc1cc(OC)cc(N(CCNC(C)C)c2ccc3ncc(-c4cnn(C)c4)nc3c2)c1 [erdafitinib]	77	13		
CCN1C(=O)N(c2c(F)c(OC)cc(OC)c2F)Cc2cnc3[nH]c(CN4CCOCC4)cc3c21 [pemigatinib]			one dose interruption	60
CCN1CCN(c2ccc(Nc3cc(N(C)C(=O)Nc4c(Cl)c(OC)cc(OC)c4Cl)ncn3)cc2)CC1 [infigratinib]			two discontinuations	77
